{"source": "patent US20220119354A1", "about": "“DIAMINO-SUBSTITUTED PYRIDINES AND PYRIMIDINES AS HERBICIDES” (FMC Corporation, priority 2019, published 2022)", "type_in_all_cases": "in vivo", "key": {"[1]": {"system": "barnyardgrass (Echinochloa crus-galli)", "assay": "Test A preemergence, barnyardgrass", "conditions": "0 to 100 scale, 0 is no effect, 100 is complete control", "summary_of_the_method": "(§1)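 Steps: plant seeds in loam/sand; spray soil (pre) or seedlings at 1–2 leaves, 2–10 cm (post) with compound in solvent plus surfactant; keep in greenhouse ~10 d; score injury visually against untreated controls, 0–100.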"}, "kochia (Kochia scoparia) [2]": {"system": "kochia (Kochia scoparia)", "assay": "Test A preemergence, kochia", "conditions": "0 to 100 scale, 0 is no effect, 100 is complete control", "summary_of_the_method": "as §1"}, "[3]": {"system": "ragweed (common ragweed, Ambrosia elatior)", "assay": "Test A preemergence, ragweed", "conditions": "0 to 100 scale, 0 is no effect, 100 is complete control", "summary_of_the_method": "as §1"}, "[4]": {"system": "ryegrass, Italian (Lolium multiflorum)", "assay": "Test A preemergence, Italian ryegrass", "conditions": "0 to 100 scale, 0 is no effect, 100 is complete control", "summary_of_the_method": "as §1"}, "[5]": {"system": "foxtail, giant (Setaria faberii)", "assay": "Test A preemergence, giant foxtail", "conditions": "0 to 100 scale, 0 is no effect, 100 is complete control", "summary_of_the_method": "as §1"}, "[6]": {"system": "pigweed (Amaranthus retroflexus)", "assay": "Test A preemergence, pigweed", "conditions": "0 to 100 scale, 0 is no effect, 100 is complete control", "summary_of_the_method": "as §1"}, "[7]": {"system": "barnyardgrass (Echinochloa crus-galli)", "assay": "Test A postemergence, barnyardgrass", "conditions": "0 to 100 scale, 0 no effect, 100 complete control", "summary_of_the_method": "as §1"}, "kochia (Kochia scoparia) [8]": {"system": "kochia (Kochia scoparia)", "assay": "Test A postemergence, kochia", "conditions": "0 to 100 scale, 0 no effect, 100 complete control", "summary_of_the_method": "as §1"}, "[9]": {"system": "ragweed (common ragweed, Ambrosia elatior)", "assay": "Test A postemergence, ragweed", "conditions": "0 to 100 scale, 0 no effect, 100 complete control", "summary_of_the_method": "as §1"}, "[10]": {"system": "ryegrass, Italian (Lolium multiflorum)", "assay": "Test A postemergence, Italian ryegrass", "conditions": "0 to 100 scale, 0 no effect, 100 complete control", "summary_of_the_method": "as §1"}, "[11]": {"system": "foxtail, giant (Setaria faberii)", "assay": "Test A postemergence, giant foxtail", "conditions": "0 to 100 scale, 0 no effect, 100 complete control", "summary_of_the_method": "as §1"}, "[12]": {"system": "pigweed (Amaranthus retroflexus)", "assay": "Test A postemergence, pigweed", "conditions": "0 to 100 scale, 0 no effect, 100 complete control", "summary_of_the_method": "as §1"}, "[13]": {"system": "wheat (Triticum aestivum)", "assay": "Test A postemergence, wheat", "conditions": "0 to 100 scale, 0 no effect, 100 complete control", "summary_of_the_method": "as §1"}, "corn (Zea mays)": {"system": "corn (Zea mays)", "assay": "Test A postemergence, corn", "conditions": "0 to 100 scale, 0 no effect, 100 complete control", "summary_of_the_method": "as §1"}, "[14]": {"system": "blackgrass (Alopecurus myosuroides)", "assay": "Test A postemergence, blackgrass", "conditions": "0 to 100 scale, 0 no effect, 100 complete control", "summary_of_the_method": "as §1"}, "[15]": {"system": "galium (catchweed bedstraw, Galium aparine)", "assay": "Test A postemergence, galium", "conditions": "0 to 100 scale, 0 no effect, 100 complete control", "summary_of_the_method": "as §1"}, "rice (Oryza sativa)": {"system": "rice (Oryza sativa)", "assay": "Test B flooded paddy test, rice", "conditions": "Flood, 250 g ai/ha, applied to paddy water, 2-leaf stage, visual evaluation after 13 to 15 d", "summary_of_the_method": "(§2)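 Application was made into paddy water of pots flooded 3 cm deep at treatment, with seedlings at the 2-leaf stage. That flood level was kept throughout, and plants stayed under glass 13 to 15 d before visual assessment on a 0–100 control scale.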"}, "[16]": {"system": "sedge, umbrella (small-flower umbrella sedge, Cyperus difformis)", "assay": "Test B flooded paddy test, umbrella sedge", "conditions": "Flood, 250 g ai/ha, applied to paddy water, 2-leaf stage, visual evaluation after 13 to 15 d", "summary_of_the_method": "as §2"}, "[17]": {"system": "ducksalad (Heteranthera limosa)", "assay": "Test B flooded paddy test, ducksalad", "conditions": "Flood, 250 g ai/ha, applied to paddy water, 2-leaf stage, visual evaluation after 13 to 15 d", "summary_of_the_method": "as §2"}, "[18]": {"system": "barnyardgrass (Echinochloa crus-galli)", "assay": "Test B flooded paddy test, barnyardgrass", "conditions": "Flood, 250 g ai/ha, applied to paddy water, 2-leaf stage, visual evaluation after 13 to 15 d", "summary_of_the_method": "as §2"}}, "data": [{"smiles": "Cc1nc(NC(C)c2coc3ccccc23)nc(N)c1C(F)(F)F", "note": "(stereo not drawn) [Compound 106]", "values": [{"measurement": "Barnyardgrass plant response rating", "setting": "[1]; 125 g ai/ha", "value": 0}, {"measurement": "Barnyardgrass plant response rating", "setting": "[1]; 500 g ai/ha", "value": 0}, {"measurement": "Kochia plant response rating", "setting": "kochia (Kochia scoparia) [2]; 125 g ai/ha", "value": 80}, {"measurement": "Kochia plant response rating", "setting": "kochia (Kochia scoparia) [2]; 500 g ai/ha", "value": 90}, {"measurement": "Ragweed plant response rating", "setting": "[3]; 125 g ai/ha", "value": 60}, {"measurement": "Ragweed plant response rating", "setting": "[3]; 500 g ai/ha", "value": 100}, {"measurement": "Ryegrass, Italian plant response rating", "setting": "[4]; 125 g ai/ha", "value": 0}, {"measurement": "Ryegrass, Italian plant response rating", "setting": "[4]; 500 g ai/ha", "value": 30}, {"measurement": "Foxtail, Giant plant response rating", "setting": "[5]; 125 g ai/ha", "value": 0}, {"measurement": "Foxtail, Giant plant response rating", "setting": "[5]; 500 g ai/ha", "value": 50}, {"measurement": "Pigweed plant response rating", "setting": "[6]; 125 g ai/ha", "value": 30}, {"measurement": "Pigweed plant response rating", "setting": "[6]; 500 g ai/ha", "value": 100}, {"measurement": "Plant response rating, Barnyardgrass", "setting": "[7]; 125 g ai/ha", "value": 0}, {"measurement": "Plant response rating, Barnyardgrass", "setting": "[7]; 500 g ai/ha", "value": 30}, {"measurement": "Plant response rating, Kochia", "setting": "kochia (Kochia scoparia) [8]; 125 g ai/ha", "value": 80}, {"measurement": "Plant response rating, Kochia", "setting": "kochia (Kochia scoparia) [8]; 500 g ai/ha", "value": 90}, {"measurement": "Plant response rating, Ragweed", "setting": "[9]; 125 g ai/ha", "value": 20}, {"measurement": "Plant response rating, Ragweed", "setting": "[9]; 500 g ai/ha", "value": 100}, {"measurement": "Plant response rating, Ryegrass, Italian", "setting": "[10]; 125 g ai/ha", "value": 0}, {"measurement": "Plant response rating, Ryegrass, Italian", "setting": "[10]; 500 g ai/ha", "value": 0}, {"measurement": "Plant response rating, Foxtail, Giant", "setting": "[11]; 125 g ai/ha", "value": 0}, {"measurement": "Plant response rating, Foxtail, Giant", "setting": "[11]; 500 g ai/ha", "value": 0}, {"measurement": "Plant response rating, Pigweed", "setting": "[12]; 125 g ai/ha", "value": 70}, {"measurement": "Plant response rating, Pigweed", "setting": "[12]; 500 g ai/ha", "value": 100}, {"measurement": "Plant response rating, Wheat", "setting": "[13]; 125 g ai/ha", "value": 0}, {"measurement": "Plant response rating, Wheat", "setting": "[13]; 500 g ai/ha", "value": 0}, {"measurement": "Plant response rating, Corn", "setting": "corn (Zea mays); 125 g ai/ha", "value": 0}, {"measurement": "Plant response rating, Corn", "setting": "corn (Zea mays); 500 g ai/ha", "value": 0}, {"measurement": "Plant response rating, Blackgrass", "setting": "[14]; 125 g ai/ha", "value": 0}, {"measurement": "Plant response rating, Blackgrass", "setting": "[14]; 500 g ai/ha", "value": 0}, {"measurement": "Plant response rating, Galium", "setting": "[15]; 125 g ai/ha", "value": 70}, {"measurement": "Plant response rating, Galium", "setting": "[15]; 500 g ai/ha", "value": 80}, {"measurement": "Plant response rating, Rice (0 to 100 scale, 0 is no effect, 100 is complete control)", "setting": "rice (Oryza sativa)", "value": 0}, {"measurement": "Plant response rating, Sedge, Umbrella (0 to 100 scale, 0 is no effect, 100 is complete control)", "setting": "[16]", "value": 0}, {"measurement": "Plant response rating, Ducksalad (0 to 100 scale, 0 is no effect, 100 is complete control)", "setting": "[17]", "value": 0}, {"measurement": "Plant response rating, Barnyardgrass (0 to 100 scale, 0 is no effect, 100 is complete control)", "setting": "[18]", "value": 0}]}, {"smiles": "CC(Nc1ncc(S(C)(=O)=O)c(N)n1)c1cc2ccccc2s1", "note": "(stereo not drawn) [Compound 107]", "values": [{"measurement": "Barnyardgrass plant response rating", "setting": "[1]; 125 g ai/ha", "value": 20}, {"measurement": "Barnyardgrass plant response rating", "setting": "[1]; 500 g ai/ha", "value": 100}, {"measurement": "Kochia plant response rating", "setting": "kochia (Kochia scoparia) [2]; 125 g ai/ha", "value": 80}, {"measurement": "Kochia plant response rating", "setting": "kochia (Kochia scoparia) [2]; 500 g ai/ha", "value": 100}, {"measurement": "Ragweed plant response rating", "setting": "[3]; 125 g ai/ha", "value": 100}, {"measurement": "Ragweed plant response rating", "setting": "[3]; 500 g ai/ha", "value": 100}, {"measurement": "Ryegrass, Italian plant response rating", "setting": "[4]; 125 g ai/ha", "value": 50}, {"measurement": "Ryegrass, Italian plant response rating", "setting": "[4]; 500 g ai/ha", "value": 90}, {"measurement": "Foxtail, Giant plant response rating", "setting": "[5]; 125 g ai/ha", "value": 30}, {"measurement": "Foxtail, Giant plant response rating", "setting": "[5]; 500 g ai/ha", "value": 100}, {"measurement": "Pigweed plant response rating", "setting": "[6]; 125 g ai/ha", "value": 60}, {"measurement": "Pigweed plant response rating", "setting": "[6]; 500 g ai/ha", "value": 100}, {"measurement": "Plant response rating, Barnyardgrass", "setting": "[7]; 125 g ai/ha", "value": 20}, {"measurement": "Plant response rating, Barnyardgrass", "setting": "[7]; 500 g ai/ha", "value": 100}, {"measurement": "Plant response rating, Kochia", "setting": "kochia (Kochia scoparia) [8]; 125 g ai/ha", "value": 50}, {"measurement": "Plant response rating, Kochia", "setting": "kochia (Kochia scoparia) [8]; 500 g ai/ha", "value": 90}, {"measurement": "Plant response rating, Ragweed", "setting": "[9]; 125 g ai/ha", "value": 40}, {"measurement": "Plant response rating, Ragweed", "setting": "[9]; 500 g ai/ha", "value": 100}, {"measurement": "Plant response rating, Ryegrass, Italian", "setting": "[10]; 125 g ai/ha", "value": 0}, {"measurement": "Plant response rating, Ryegrass, Italian", "setting": "[10]; 500 g ai/ha", "value": 40}, {"measurement": "Plant response rating, Foxtail, Giant", "setting": "[11]; 125 g ai/ha", "value": 10}, {"measurement": "Plant response rating, Foxtail, Giant", "setting": "[11]; 500 g ai/ha", "value": 60}, {"measurement": "Plant response rating, Pigweed", "setting": "[12]; 125 g ai/ha", "value": 80}, {"measurement": "Plant response rating, Pigweed", "setting": "[12]; 500 g ai/ha", "value": 100}, {"measurement": "Plant response rating, Wheat", "setting": "[13]; 125 g ai/ha", "value": 0}, {"measurement": "Plant response rating, Wheat", "setting": "[13]; 500 g ai/ha", "value": 30}, {"measurement": "Plant response rating, Corn", "setting": "corn (Zea mays); 125 g ai/ha", "value": 0}, {"measurement": "Plant response rating, Corn", "setting": "corn (Zea mays); 500 g ai/ha", "value": 30}, {"measurement": "Plant response rating, Blackgrass", "setting": "[14]; 125 g ai/ha", "value": 0}, {"measurement": "Plant response rating, Blackgrass", "setting": "[14]; 500 g ai/ha", "value": 80}, {"measurement": "Plant response rating, Galium", "setting": "[15]; 125 g ai/ha", "value": 70}, {"measurement": "Plant response rating, Galium", "setting": "[15]; 500 g ai/ha", "value": 80}, {"measurement": "Plant response rating, Rice (0 to 100 scale, 0 is no effect, 100 is complete control)", "setting": "rice (Oryza sativa)", "value": 0}, {"measurement": "Plant response rating, Sedge, Umbrella (0 to 100 scale, 0 is no effect, 100 is complete control)", "setting": "[16]", "value": 75}, {"measurement": "Plant response rating, Ducksalad (0 to 100 scale, 0 is no effect, 100 is complete control)", "setting": "[17]", "value": 70}, {"measurement": "Plant response rating, Barnyardgrass (0 to 100 scale, 0 is no effect, 100 is complete control)", "setting": "[18]", "value": 45}]}]}
